Results reported in patent publication US20180116978A1, “FORMULATIONS OF TOCOTRIENOL QUINONES FOR THE TREATMENT OF OPHTHALMIC DISEASES” (priority 2009, published 2018).
Like-named read-outs stand apart in the source and are kept apart here.

Legend:
[1] = Animal study of alpha-tocotrienol quinone administration, pharmacokinetics in fasted dogs; type: in vivo; details: 10 mg/kg
[2] = rat, in vivo
Description: The starting dose can be estimated based on the United States Food and Drug Administration guidelines titled “Estimating the Maximum Safe Starting Dose in Initial Clinical Trials for Therapeutics in Adult Healthy Volunteers” (July 2005) as well as the International Conference on Harmonisation of Technical Requirements for Registration of Pharmaceuticals for Human Use (ICH) guidelines titled “Guidance on Non-clinical Safety Studies for the Conduct of Human Clinical Trials and Marketing Authorization for Pharmaceuticals” (July 2008). Per ICH guidelines, predicted exposures from the starting dose should not exceed 1/50th the NOAEL (No-Adverse-Observed-Effect-Level) in the more sensitive species on a mg/m^2 basis. Following a single oral dose of alpha-tocotrienol quinone, the NOAEL was established to be 500 mg/kg for the female rat, i.e. 3,000 mg/m^2. This dosage would be equivalent to 81 mg/kg in an adult human. 1/50th of 81 mg/kg is 1.6 mg/kg, i.e. 110 mg for a 70 kg adult, or 16 mg for a 10 kg child. This dose can be administered once, twice, or three times daily.

[3] = rat, in vivo; remark: listed apart in the source
[4] = rat, cited from earlier work

`CC(C)=CCC/C(C)=C/CC/C(C)=C/CCC(C)(O)CCC1=C(C)C(=O)C(C)=C(C)C1=O` (stereo not drawn) [Alpha-tocotrienol quinone, Alpha-Tocotrienol quinone] gave a Cmax [1] of 442 ng/mL, a Tmax [1] of 2.8 h and a bioavailability [1] of roughly 16%. For the same molecule, the t1/2 [1] was 7.6 h, the “NOAEL equivalent dosage in an adult human” value [2] was 81 mg/kg and the “safe when given acutely up to” value [2] was “up to 2000 mg/kg”. The “increase in AUCs” value [3] was 1.5:2.8:4.0:6.7, the Cmax ([3]; 10 mg/kg) was 931 ng/mL and the Tmax ([3]; 10 mg/kg) was 3.5 h. The bioavailability ([3]; 10 mg/kg) was roughly 90% and the t1/2 ([3]; 10 mg/kg) was 3.5 h.

In the case of `Cc1c(C)c2c(c(C)c1O)CC[C@@](C)(CCC[C@H](C)CCC[C@H](C)CCCC(C)C)O2` [alpha-tocopherol], the “concentration in ocular tissues” value ([4]; in vivo) is listed as “no significant increase”.

In the case of alpha-tocotrienol, the “concentration in ocular tissues” value ([4]; topical ophthalmic administration) is listed as “increased markedly in every tissue”.
